# Test results: patent US12472226B2, “Cell-permeable peptide” (priority 2019, dated 2025)
# Non-standard residues stand in square brackets, D forms with d. Primed or numbered codes have the meaning given here. No end group written: not given here. *: point of attachment. FITC = O=C1OC2(c3ccc(O)cc3Oc3cc(O)ccc32)c2ccc(NC(=S)*)cc21; PEG4′ = not defined here; PEG5′ = not defined here; Ahx = NCCCCCC(=O)O
# Experiments:
# HT-1080 cells tumor = test: Delivery test on anticancer agent in tumor-bearing mice; assay type: in vivo, BALB/c nude mouse
# Method: HT-1080 cells (1×10^7 cells/200 μL) were subcutaneously implanted into the back of 5 week-old BALB/c nude mouse (CHARLES RIVER LABORATORIES JAPAN, INC.). A tumor after the implantation was confirmed to reach 30 to 60 mm^3, and then they were subjected to the following tests.
# Example 2 was dissolved in the sterile water and adjusted to be 200 μg/200 μL by the addition of 2-time concentrated α-MEM (not containing glutamine or an antibiotic). It was intraperitoneally administered to tumor-bearing mice at 10 mg/kg every 3 days. In the control administration group, 200 μL of 1-time concentrated α-MEM was intraperitoneally administered to tumor-bearing mice every 3 days. The mice were weighed on DRETEC weighing scale (DRETEC CO., Ltd., Japan) and the tumor size (estimation volume (shortest diameter×longer diameter×height×pi/6 mm^3)) was measured with a vernier caliper (maximum: 150 mm, minimum: 0.05 mm) (MITUTOYO, Japan) every 3 days.
# Example 3 and Comparative Example 4 (Dox) were treated to be at 5 or 1.2 mg/kg, respectively in the same manner as that of Example 2, and administered to the tumor-bearing mice. The tumor size was measured by the same procedure as above.
# FIG. 7 is a graph illustrating transitions of tumor size in the control (N=2), Comparative Example 4(N=2) and Example 3 administration group (N=2). The vertical axis represents the average value of tumor size±standard deviation (SD) and the horizontal axis represents the days after administration. […] The tumor size day 24 grew to about 2,000 mm^3 in the control and Comparative Example 4 administration group. […] That is, the tumors largely shrank due to not only anticancer effect of the peptide itself but also the effect of the anticancer agent. The peptides of the present invention specifically act on the target cells compared with the single administration of the anticancer agent and have high toxicity against the cancer cells.
# HT-1080 cells [1] = test: Test of inducing cell-death in vitro (Calcein-AM/PI dead cell rate); assay type: cell-based, human; conditions: 9th day
# Description: Human fibrosarcoma-derived HT-1080 cells (HT-1080 cells, JCRB cell bank) were used as cancer cells in the test for monitoring changes in mitochondrial membrane potential. HT-1080 cells, human osteosarcoma cell line Hos cells (Hos cells, JCRB cell bank), human histiocytic lymphoma/macrophage U937 cells (U937 cells, JCRB cell bank), human myeloid leukemia HL-60 cells (HL-60 cells, JCRB cell bank), acute monocytic leukemia THP-1 cells (THP-1 cells, JCRB cell bank), human alveolar basal epithelial adenocarcinoma cell A549 cells (A549 cells, Cell Resource Center for Biomedical Research, Institute of Development, Aging and Cancer, Tohoku University), human pancreatic carcinoma cells (MIA Paca 2 cells, Cell Resource Center for Biomedical Research, Institute of Development, Aging and Cancer, Tohoku University) and well differentiated human liver carcinoma-derived cell line HuH7 cells (HuH7 cells, Cell Resource Center for Biomedical Research, Institute of Development, Aging and Cancer, Tohoku University) were used as cancer cells in an in vitro cell-death induction test of cancer cells and a nuclear transport test of Example 2. Normal human gingival fibroblast cells Gin-1 (Gin-1 cells, DS Pharma Biomedical) were used as a control. The above-described cells were each inoculated into a 96-well culture plate (Falcon) at 5,000 cells/[…] and subjected to the following tests.
# The peptide of SEQ ID NO: 1 labeled with FITC (Example 2) was used for the test of inducing cell-death in vitro in cancer cells. It was prepared the test example to which 100 μL of Example 2 and further 10% FBS were added and cultured for 9 days under conditions of 200 μL of serum-supplemented medium (Alpha modification of Eagle's MEM (α-MEM) (Thermo Fisher Scientific)+10% FBS). Furthermore, it was also produced the test example that was cultured for 21 days with the whole amount of Example 2-supplemented medium replaced every 7 days. As a control, the cells were cultured in a serum-supplemented medium (α-MEM+10% FBS) without addition and were used. A supernatant was removed after the completion of the culture. The cells were washed once with PBS and stained in PBS to which a fluorescent dye for living cell staining Calcein-AM (DOJINDO LABORATORIES) (final concentration: 0.1 μg/mL) and a fluorescent dye for dead cell staining Propidium Iodide (PI) (DOJINDO LABORATORIES) (final concentration: 0.3 μg/mL) were added, at 37° C. in a 5% CO2 cell incubator for 30 minutes. The living cells and dead cells were separately stained with Calcein-AM and PI, respectively and imaged with the confocal laser scanning microscope LSM800. Next, the dead cell rate relative to the number of total cells was analyzed using ImageJ.
# The results are represented by the average value of the dead cell rate (the number red cells stained with IP/the number of total cells×100(%))±standard deviation (SD). In FIG. 2A, the vertical axis represents the rate of cell death when each cell was cultured with Example 2 (50 μg/mL) for 9 days and the horizontal axis represents various types of cells. The increase in the dead cell rate of the Gin-1 cells was not observed.
# The concentrations of Examples 2 and 4 to 6 were adjusted to 12.5, 25, 50 and 100 μg/mL, respectively and then administrated to the HT-1080 cells for 9 days tested by the same method as in Test Example 2A. The cell staining and subsequent analyses of the dead cell rate relative to the number of total cells were performed in the same manner as Test Example 2A.
# Gin-1 cells = test: Test of monitoring changes in mitochondrial membrane potential (JC-1 apoptosis rate), normal cells; assay type: cell-based, human; conditions: 50 μg/mL
# Method: (§1) Human fibrosarcoma-derived HT-1080 cells (HT-1080 cells, JCRB cell bank) were used as cancer cells in the test for monitoring changes in mitochondrial membrane potential. […]
# (§2) The synthetic peptide of Example 1 or Comparative Examples 1 to 3 was individually added to the HT-1080 cells, and the cells were cultured in a serum-supplemented medium (α-MEM+10% FBS). […] Further, the cells were washed once with PBS followed by the addition of 100 μL of PBS, scanned with a confocal laser scanning microscope LSM800 (Zeiss) and then analyzed with ImageJ. […]
# HT-1080 cells [2] = test: Test of monitoring changes in mitochondrial membrane potential (JC-1 apoptosis rate); assay type: cell-based, human; conditions: 7 days, Example 1 at 25, 50 and 100 μg/mL, Comparative Examples at 50 and 100 μg/mL
# Method: as §1, §2
molecule,measurement,setting,value
"COc1cccc2c1C(=O)c1c(O)c3c(c(O)c1C2=O)C[C@@](O)(C(=O)CO)C[C@@H]3O[C@H]1C[C@H](N)[C@H](O)[C@H](C)O1 [Comparative Example 4, Doxorubicin, reference compound]",tumor size,"HT-1080 cells tumor; 1.2 mg/kg, day 24, N=2","about 2,000 mm^3"
Example 3 ({doxorubicin-PEG5′-DBCO‑azide-PEG4′}-KDNRGNLLQCVCTGNGRGEWKC; cysteine pairing not given here),suppression of tumor proliferation compared with the control and Comparative Example 4 administration group,"HT-1080 cells tumor; 5 mg/kg, between days 18 and 24, N=2",significant difference at the level of 1%
same,suppression effect on tumor,"HT-1080 cells tumor; 5 mg/kg, to the day 24",suppression effect was confirmed
Example 5: peptide of SEQ ID NO: 2 labeled with FITC via an Ahx linker at the N-terminus ({FITC}-[Ahx]KDNRGNLLQCICTGNGRGEWKC; cysteine pairing not given here),dead cell rate,HT-1080 cells [1]; 50 or 100 μg/mL,≥ 50%
Example 6: peptide of SEQ ID NO: 6 labeled with FITC via an Ahx linker at the N-terminus ({FITC}-[Ahx]KHGLYNLKQCKMSLNGQRGECWC; cysteine pairing not given here),dead cell rate,HT-1080 cells [1]; 12.5 μg/mL substantially same as 100 μg/mL,about 35%
KDNRGNLLQCVCTGNGRGEWKC (This is derived from a part of CD ligand.; BINDING (3)..(6); BINDING (13)..(17)) [Example 1],increase in apoptosis rate,Gin-1 cells,not observed
same,increase in apoptosis rate (number of green cell dyed with JC1/number of total cells),HT-1080 cells [2],increase in apoptosis rate of the HT-1080 cells was confirmed
